For this test, the system named is Plasmodium berghei. Nature of the test: Luciferase/luciferin-expressing antifolate-resistant parasites were used to infect a culture of HepG2 cells that were pre-incubated with compounds. Infected hepatocytes emit light due to the luciferase reaction. Assay results are presented as the percent inhibition of light emission compared to control. […]. It counts as functional. As to conditions: sporozoite; for IC90: read-out: LUCIFERASE INFECTION ASSAY - IC90.

This note sets out measurements from ChEMBL document CHEMBL4483862, “Open-source discovery of chemical leads for next-generation chemoprotective antimalarials” (2018).

One may read the pIC50 as the negative decadic logarithm of the IC50, by convention in mol/L. As usually defined, the IC90 is the concentration needed for an effect of 90%.

Each structure is given as a SMILES string. pIC50: −log10 of the molar value.

Consider `CC(=O)N1CCCC(c2cc(C(=O)Nc3ccccc3)no2)C1` (centres undefined), for which the IC90 came out at 1.44 µM. Moreover, under “FFLUC_HILL_SLOPE 1.94, FFLUC_R_SQUARED 0.745, PBLUC_HILL_SLOPE 0.811, PBLUC_R_SQUARED 0.626, read-out: LUCIFERASE INFECTION ASSAY - IC50”, the negative logarithm of the IC50 (pIC50) was 7.02.

Take `CCc1c(C)sc2nc(SCC3COc4ccccc4O3)n(-c3ccc(O)cc3C)c(=O)c12` (centres undefined): the IC90 was over 10 µM. Besides, the pIC50 (FFLUC_HILL_SLOPE 1.97, FFLUC_R_SQUARED 0.841, read-out: LUCIFERASE INFECTION ASSAY - IC50) was under 5.00.

On to `COc1ccccc1NS(=O)(=O)c1ccc2c(c1)N=Cc1c(F)cccc1O2`, for which the 90% effect concentration (IC90) is over 10 µM. Besides, the pIC50 (FFLUC_HILL_SLOPE 2, FFLUC_R_SQUARED 0.88, HEPG2TOX_HILL_SLOPE 51.5, HEPG2TOX_R_SQUARED 0.639, PBLUC_HILL_SLOPE 12.2, PBLUC_R_SQUARED 0.289, read-out: LUCIFERASE INFECTION ASSAY - IC50) is 5.04.

As for `N#CCOc1cc(Cl)cc(Cl)c1`, the 90% effect concentration (IC90) was over 16.3 µM. The negative logarithm of the IC50 (pIC50) (FFLUC_HILL_SLOPE 1.89, FFLUC_R_SQUARED 0.0257, read-out: LUCIFERASE INFECTION ASSAY - IC50) was under 4.79.

Turning to `O=C(Nc1cccc(C(F)(F)F)c1)OCCSc1ccc([N+](=O)[O-])c2nonc12`, the IC90 was over 7.7 µM. Further, the pIC50 (FFLUC_HILL_SLOPE 1.97, FFLUC_R_SQUARED 0.686, HEPG2TOX_HILL_SLOPE 15.6, HEPG2TOX_R_SQUARED 0.779, read-out: LUCIFERASE INFECTION ASSAY - IC50) is under 5.11.

`COc1ccc(-c2n[nH]c(SC(C(=O)Nc3cc(Cl)cc(Cl)c3)c3ccccc3)nc2=O)cc1` (centres undefined): the IC90 came to 3.75 µM. Besides, for the setting “FFLUC_HILL_SLOPE 1.9, FFLUC_R_SQUARED 0.863, HEPG2TOX_HILL_SLOPE 8.67, HEPG2TOX_R_SQUARED 0.533, PBLUC_HILL_SLOPE 16.2, PBLUC_R_SQUARED 0.618, read-out: LUCIFERASE INFECTION ASSAY - IC50”, the negative logarithm of the IC50 (pIC50) was 5.49.

`O=C(Nc1ccccc1N1CCOCC1)c1ccc2noc(-c3ccccc3)c2c1`: the IC90 is over 10 µM. Moreover, under “FFLUC_HILL_SLOPE 1.87, FFLUC_R_SQUARED 0.584, PBLUC_HILL_SLOPE 3.85, PBLUC_R_SQUARED 0.483, read-out: LUCIFERASE INFECTION ASSAY - IC50”, the pIC50 is 5.10.

In the case of `N#Cc1c(Cl)cccc1N1CCOCC1`, the IC90 is over 14.8 µM. Also, the pIC50 (FFLUC_HILL_SLOPE 1.9, FFLUC_R_SQUARED 0.649, HEPG2TOX_HILL_SLOPE 2.33, HEPG2TOX_R_SQUARED 0.905, PBLUC_HILL_SLOPE 3.58, PBLUC_R_SQUARED 0.165, read-out: LUCIFERASE INFECTION ASSAY - IC50) was 4.85.

In the case of `CC(C)(C)C(=O)/C=c1\[nH]c(=O)/c(=C\c2ccc(-c3ccc(S(=O)(=O)N4CCOCC4)cc3)o2)s1`, the IC90 was over 10 µM. Moreover, under “FFLUC_HILL_SLOPE 2, FFLUC_R_SQUARED 0.892, read-out: LUCIFERASE INFECTION ASSAY - IC50”, the pIC50 is under 5.00.

As for `CCCCNC(=O)c1c(NC(=O)c2ccccc2)nc2ccccn12`, the IC90 came out at 7.86 µM. The pIC50 (FFLUC_HILL_SLOPE 2.02, FFLUC_R_SQUARED 0.16, HEPG2TOX_HILL_SLOPE 0.796, HEPG2TOX_R_SQUARED 0.541, PBLUC_HILL_SLOPE 4.74, PBLUC_R_SQUARED 0.419, read-out: LUCIFERASE INFECTION ASSAY - IC50) was 5.31.

`CCCCNC(=O)c1c(NC(=O)c2cccc(C(F)(F)F)c2)nc2ccc(C)cn12`: the IC90 was determined as 1 µM. Also, the pIC50 (FFLUC_HILL_SLOPE 2.04, FFLUC_R_SQUARED 0.518, HEPG2TOX_HILL_SLOPE 1.13, HEPG2TOX_R_SQUARED 0.759, PBLUC_HILL_SLOPE 2.77, PBLUC_R_SQUARED 0.788, read-out: LUCIFERASE INFECTION ASSAY - IC50) was 6.34.

Consider `Cc1cn2c(CC(=O)Nc3ccc(C(F)(F)F)cc3)csc2n1`, for which the IC90 is 5.2 µM. Also, the pIC50 (FFLUC_HILL_SLOPE 1.95, FFLUC_R_SQUARED 0.137, HEPG2TOX_HILL_SLOPE 2.23, HEPG2TOX_R_SQUARED 0.859, PBLUC_HILL_SLOPE 8.61, PBLUC_R_SQUARED 0.683, read-out: LUCIFERASE INFECTION ASSAY - IC50) was 5.39.

`CCOC(=O)c1c(-c2ccc(C)cc2C)csc1NC(=O)COC(=O)c1cc(OC)c(OC)cc1[N+](=O)[O-]`: the IC90 is 9.51 µM. Further, the pIC50 (FFLUC_HILL_SLOPE 2.01, FFLUC_R_SQUARED 0.464, HEPG2TOX_HILL_SLOPE 2.45, HEPG2TOX_R_SQUARED 0.944, PBLUC_HILL_SLOPE 17.4, PBLUC_R_SQUARED 0.281, read-out: LUCIFERASE INFECTION ASSAY - IC50) is 5.08.

Turning to `Cc1nn(-c2ccccc2)c2sc(-c3[nH]nc(-c4ccccc4)c3-c3nc4ccccc4[nH]3)cc12`, the concentration for an effect of 90% (IC90) amounted to 7.66 µM. Besides, the pIC50 (FFLUC_HILL_SLOPE 1.87, FFLUC_R_SQUARED 0.663, HEPG2TOX_HILL_SLOPE 0.372, HEPG2TOX_R_SQUARED 0.356, PBLUC_HILL_SLOPE 1.24, PBLUC_R_SQUARED 0.688, read-out: LUCIFERASE INFECTION ASSAY - IC50) is 5.89.

Turning to `CN(C)c1cccc(-c2cnc3sc(NCCc4ccc(S(N)(=O)=O)cc4)nn23)c1`, the IC90 is over 7.46 µM. For the same compound, the pIC50 (FFLUC_HILL_SLOPE 1.97, FFLUC_R_SQUARED 0.664, read-out: LUCIFERASE INFECTION ASSAY - IC50) is under 5.13.

As for `Clc1ccc(-c2nc3ncc(Br)cc3[nH]2)cc1`, the IC90 was 3.76 µM. For the same compound, under “FFLUC_HILL_SLOPE 1.95, FFLUC_R_SQUARED 0.684, PBLUC_HILL_SLOPE 3.28, PBLUC_R_SQUARED 0.422, read-out: LUCIFERASE INFECTION ASSAY - IC50”, the pIC50 is 5.72.

For the compound `Cc1cccc(Cn2nc(C(C)(C)C)cc2-c2nnc(SCc3c(F)cccc3Cl)n2C2CCCCC2)c1`, the IC90 is over 5.98 µM. The pIC50 (FFLUC_HILL_SLOPE 2.05, FFLUC_R_SQUARED 0.435, PBLUC_HILL_SLOPE 2, PBLUC_R_SQUARED 0.623, read-out: LUCIFERASE INFECTION ASSAY - IC50) was 5.39.

On to `Cc1nn(-c2ccccc2)c(N2CCCCC2)c1/C=N/Nc1cc(-c2ccccc2)c2ccccc2n1`, for which the IC90 is over 10 µM. The negative logarithm of the IC50 (pIC50) (FFLUC_HILL_SLOPE 1.88, FFLUC_R_SQUARED 0.83, PBLUC_HILL_SLOPE 15.6, PBLUC_R_SQUARED 0.0616, read-out: LUCIFERASE INFECTION ASSAY - IC50) was 5.05.

`COc1c(Cl)cc([N+](=O)[O-])c(OC)c1C(=O)NC(=O)Nc1cc(Cl)cc(Cl)c1`: the IC90 was over 7.36 µM. Besides, the pIC50 (FFLUC_HILL_SLOPE 1.87, FFLUC_R_SQUARED 0.625, PBLUC_HILL_SLOPE 21.1, PBLUC_R_SQUARED 0.112, read-out: LUCIFERASE INFECTION ASSAY - IC50) is 5.16.

`N#C/C(=N\Nc1cc(C(F)(F)F)cc(C(F)(F)F)c1)S(=O)(=O)c1ccc(Cl)cc1`: the IC90 worked out at 1.73 µM. Also, under “FFLUC_HILL_SLOPE 2.02, FFLUC_R_SQUARED 0.178, HEPG2TOX_HILL_SLOPE 2.35, HEPG2TOX_R_SQUARED 0.941, PBLUC_HILL_SLOPE 1.74, PBLUC_R_SQUARED 0.757, read-out: LUCIFERASE INFECTION ASSAY - IC50”, the pIC50 is 6.31.

As for `O=C(Nc1cc(Cl)cc(Cl)c1)c1cc(Cl)c(-n2cccc2)c(Cl)c1`, the IC90 turned out to be 4.35 µM. Further, where the note is “FFLUC_HILL_SLOPE 1.91, FFLUC_R_SQUARED 0.0412, HEPG2TOX_HILL_SLOPE 16.8, HEPG2TOX_R_SQUARED 0.892, PBLUC_HILL_SLOPE 9.75, PBLUC_R_SQUARED 0.262, read-out: LUCIFERASE INFECTION ASSAY - IC50”, the pIC50 was 5.46.

Take `O=[N+]([O-])c1c(Sc2ccc(Cl)cc2)ccc2nsnc12`: the IC90 turned out to be 8.49 µM. In addition, the pIC50 (FFLUC_HILL_SLOPE 1.96, FFLUC_R_SQUARED 0.577, HEPG2TOX_HILL_SLOPE 12.8, HEPG2TOX_R_SQUARED 0.787, PBLUC_HILL_SLOPE 2.81, PBLUC_R_SQUARED 0.465, read-out: LUCIFERASE INFECTION ASSAY - IC50) is 5.41.

Regarding `CSc1sc(C(=O)Nc2ccc(F)c(Cl)c2)c(-c2ccc(Cl)cc2)c1C#N`, the IC90 was over 7.55 µM. Also, under “FFLUC_HILL_SLOPE 1.91, FFLUC_R_SQUARED 0.467, read-out: LUCIFERASE INFECTION ASSAY - IC50”, the pIC50 was under 5.12.

Turning to `COc1ccccc1-c1noc(-c2cc3c(s2)CCCCC3)n1`, the IC90 was 0.846 µM. Besides, the pIC50 (FFLUC_HILL_SLOPE 2.02, FFLUC_R_SQUARED 0.0931, PBLUC_HILL_SLOPE 0.909, PBLUC_R_SQUARED 0.727, read-out: LUCIFERASE INFECTION ASSAY - IC50) is 7.12.

As to `CCOC(=O)c1oc2ccccc2c1CSc1nc2ccccc2c(=O)n1Cc1ccccc1`, the IC90 was 4.13 µM. Also, the pIC50 (FFLUC_HILL_SLOPE 1.98, FFLUC_R_SQUARED 0.579, HEPG2TOX_HILL_SLOPE 1.74, HEPG2TOX_R_SQUARED 0.914, PBLUC_HILL_SLOPE 15.9, PBLUC_R_SQUARED 0.125, read-out: LUCIFERASE INFECTION ASSAY - IC50) is 5.44.

On to `COc1cc(NC(=O)COC(=O)c2c(C)nn(Cc3ccc(Cl)cc3Cl)c2Cl)c(C)cc1[N+](=O)[O-]`, for which the IC90 was over 10 µM. In addition, the pIC50 (FFLUC_HILL_SLOPE 1.94, FFLUC_R_SQUARED 0.846, read-out: LUCIFERASE INFECTION ASSAY - IC50) is under 5.00.

Consider `O=[N+]([O-])c1cnc(Sc2nnc(O)n2C2CCCCC2)s1`, for which the IC90 was found to be 9.75 µM. The pIC50 (FFLUC_HILL_SLOPE 1.98, FFLUC_R_SQUARED 0.448, HEPG2TOX_HILL_SLOPE 4.19, HEPG2TOX_R_SQUARED 0.922, PBLUC_HILL_SLOPE 12.6, PBLUC_R_SQUARED 0.344, read-out: LUCIFERASE INFECTION ASSAY - IC50) was 5.09.
